The results in this text go back to ChEMBL document CHEMBL1123368, “Plant antitumor agents. 23. Synthesis and antileukemic activity of camptothecin analogues” (1986).

Assay [1] has as its system P338. In words: Compound was evaluated for antitumor activity against P-338 leukemia in mice, active dose range of the compound; Lowest dose administered, dose range was 2.5-40 mg/kg. In kind it is functional, Mus musculus.
In assay [2] the test system is P338. In words: Antitumor activity against P-338 leukemia in mice. In kind it is functional, Mus musculus.
In assay [3] the test system is L1210 leukemia (mouse). Description: Compound was evaluated for antitumor activity against L1210 leukemia in mice at the dose of 40 mg/kg; T/C=Survival time of treated/control animals*100.
In assay [4] the test system is P338. Description: Compound was evaluated for antitumor activity against P-338 leukemia in mice, active dose range of the compound; Lowest dose to highest dose administered, dose range was 2.5-40 mg/kg. In kind it is functional, Mus musculus.
The test system of assay [5] is P338. Description: Compound was evaluated for antitumor activity against P-338 leukemia in mice.a ctive dose range was 8-32 mg/kg. In kind it is functional, Mus musculus.
In assay [6] the test system is P338. In words: Compound was evaluated for antitumor activity against P-338 leukemia in mice at the dose of 32 mg/kg; T/C=Survival time of treated/control animals*100. It counts as functional, Mus musculus.
Assay [7] has as its system P338. In words: Compound was evaluated for antitumor activity against P-338 leukemia in mice, active dose range of the compound; Lowest dose to highest dose administered, dose range was 2-32 mg/kg. In kind it is functional, Mus musculus.
The test system of assay [8] is P338. Description: Compound was evaluated for antitumor activity against P-338 leukemia in mice at the dose of 16 mg/kg; T/C=Survival time of treated/control animals*100. It counts as functional, Mus musculus.
In assay [9] the test system is P338. Description: Compound was evaluated for antitumor activity against P-338 leukemia in mice, active dose range of the compound; Lowest dose administered, dose range was 0.4-1.6 mg/kg. It counts as functional, Mus musculus.
In assay [10] the test system is P338. Description: Compound was evaluated for antitumor activity against P-338 leukemia in mice at the dose of 1.6 mg/kg; T/C=Survival time of treated/control animals*100. In kind it is functional, Mus musculus.
Assay [11] relates to P338. In words: Compound was evaluated for antitumor activity against P-338 leukemia in mice, active dose range of the compound; Lowest dose administered, dose range was 1.25-2.5 mg/kg. It counts as functional, Mus musculus.
In assay [12] the test system is L1210 leukemia (mouse). Description: Compound was evaluated for antitumor activity against L1210 leukemia in mice at the dose of 2.5 mg/kg; T/C=Survival time of treated/control animals*100.
The test system of assay [13] is P338. Description: Compound was evaluated for antitumor activity against P-338 leukemia in mice at the dose of 20 mg/kg; T/C=Survival time of treated/control animals*100. In kind it is functional, Mus musculus.
For assay [14], the system named is P338. Description: Compound was evaluated for antitumor activity against P-338 leukemia in mice, active dose range of the compound; Lowest dose to highest dose administered, dose range was 5-40 mg/kg. It counts as functional, Mus musculus.
The test system of assay [15] is L1210 leukemia (mouse). Description: Antitumor activity against L1210 leukemia in mice.
The test system of assay [16] is P338. Description: Compound was evaluated for antitumor activity against P-338 leukemia in mice; T/C=Survival time of treated/control animals*100; Inactive. It counts as functional. Particulars: Mus musculus.
Assay [17] concerns P338. In words: Compound was evaluated for antitumor activity against P-338 leukemia in mice, active dose range of the compound; Lowest dose to highest dose administered, dose range was 7.5-60 mg/kg. In kind it is functional, Mus musculus.
Assay [18] deals with P338. Description: Compound was evaluated for antitumor activity against P-338 leukemia in mice at the dose of 60 mg/kg; T/C=Survival time of treated/control animals*100. In kind it is functional, Mus musculus.
The test system of assay [19] is P338. Description: Compound was evaluated for antitumor activity against P-338 leukemia in mice, active dose range of the compound; Lowest dose administered, dose range was 7.5-15.5 mg/kg. In kind it is functional, Mus musculus.
Assay [20] has as its system P338. In words: Compound was evaluated for antitumor activity against P-338 leukemia in mice at the dose of 25 mg/kg; T/C=Survival time of treated/control animals*100. It counts as functional, Mus musculus.
Assay [21] relates to P338. Description: Compound was evaluated for antitumor activity against P-338 leukemia in mice. toxic dose range of the compound; Highest dose administered. It counts as functional, Mus musculus.
The test system of assay [22] is P338. In words: Compound was evaluated for antitumor activity against P-338 leukemia in mice, active dose range of the compound; Lowest dose administered, dose range was 3.12-25 mg/kg. In kind it is functional, Mus musculus.
Assay [23] relates to P338. In words: Compound was evaluated for antitumor activity against P-338 leukemia in mice at the dose of 8 mg/kg; T/C=Survival time of treated/control animals*100. It counts as functional, Mus musculus.
Assay [24] relates to P338. Description: Compound was evaluated for antitumor activity against P-338 leukemia in mice, active dose range of the compound; Lowest dose administered, dose range was 4-16 mg/kg. It counts as functional, Mus musculus.
Assay [25] concerns P338. In words: Compound was evaluated for antitumor activity against P-338 leukemia in mice; T/C=Survival time of treated/control animals *100; Inactive. It counts as functional. Particulars: Mus musculus.
In assay [26] the test system is P338. Description: Compound was evaluated for antitumor activity against P-338 leukemia in mice at the dose of 2 mg/kg; T/C=Survival time of treated/control animals*100. It counts as functional, Mus musculus.
The test system of assay [27] is P338. Description: Compound was evaluated for antitumor activity against P-338 leukemia in mice, active dose range of the compound; Lowest dose administered, dose range was 2.0-4.0 mg/kg. It counts as functional, Mus musculus.
Assay [28] deals with L1210 leukemia (mouse). In words: Compound was evaluated for antitumor activity against L1210 leukemia in mice, active dose range of the compound; Lowest dose administered, dose range was 2.5-5 mg/kg.
Assay [29] deals with P338. Description: Compound was evaluated for antitumor activity against P-338 leukemia in mice at the dose of 4 mg/kg; T/C=Survival time of treated/control animals*100. It counts as functional, Mus musculus.
For assay [30], the system named is P338. Description: Compound was evaluated for antitumor activity against P-338 leukemia in mice at the dose of 3.1 mg/kg; T/C=Survival time of treated/control animals*100. In kind it is functional, Mus musculus.
The subject of assay [31] is P338. Description: Compound was evaluated for antitumor activity against P-338 leukemia in mice, active dose range of the compound; Lowest dose administered, dose range was 0.4-3.1 mg/kg. In kind it is functional, Mus musculus.
The subject of assay [32] is P338. Description: Compound was evaluated for antitumor activity against P-338 leukemia in mice, toxic dose range of the compound. In kind it is functional, Mus musculus.
Assay [33] concerns L1210 leukemia (mouse). Description: Compound was evaluated for antitumor activity against L1210 leukemia in mice, active dose range of the compound; Lowest dose administered, dose range was 2.5-20 mg/kg.
Assay [34] concerns L1210 leukemia (mouse). In words: Compound was evaluated for antitumor activity against L1210 leukemia in mice at the dose of 10 mg/kg; T/C=Survival time of treated/control animals*100.

Each structure is given as a SMILES string. Calls of active or inactive are those of the source. No cut-off for these calls is given here. Bounds are passed on as bounds.

Consider `CC[C@@]1(O)C(=O)OCc2c1cc1n(c2=O)Cc2cc3cccc([N+](=O)[O-])c3nc2-1`, for which the Active dose range in assay [1] is 2.5 mg/kg. The No. of cures in [2] is 0. Further, in [3], the T/C worked out at 151%.

Turning to `CC[C@@]1(O)C(=O)OCc2c1cc1n(c2=O)Cc2cc3c(NC(C)=O)c(O)ccc3nc2-1`, the No. of cures in assay [2] stood at 0. Besides, the T/C in assay [3] amounted to 220%. In [4], this compound yielded an Active dose range of 2.5 mg/kg.

`CCC1(O)C(=O)OCc2c1cc1n(c2=O)Cc2cc3cccnc3nc2-1` (stereo not drawn) had an Active dose range in assay [5] of 8 mg/kg. In assay [2], the No. of cures is 0. Further, the T/C in assay [6] stood at 175%.

In [2], `CCN(CC)CCOc1ccc2nc3c(cc2c1)Cn1c-3cc2c(c1=O)COC(=O)[C@]2(O)CC.Cl` registered a No. of cures of 0. The same compound had an Active dose range in assay [7] of 2 mg/kg. Further, the T/C in assay [8] is reported as 183%.

Compound `CC[C@@]1(O)C(=O)OCc2c1cc1n(c2=O)Cc2cc3cc(OC)ccc3nc2-1` gave a No. of cures in [2] of 0. In addition, the Active dose range in assay [9] amounted to 0.4 mg/kg. In assay [10], this compound came in with a T/C of 167%.

The compound `CCC1(O)C(=O)OCc2c1cc1n(c2=O)Cc2cc3cnccc3nc2-1` (stereo not drawn) registered an Active dose range in assay [11] of 1.25 mg/kg. Besides, the No. of cures in [2] was 0. The T/C in assay [12] is on record as 162%.

In [2], `CC[C@@]1(O)C(=O)OCc2c1cc1n(c2=O)Cc2cc3c([N+](=O)[O-])c(OC)ccc3nc2-1` returned a No. of cures of 0. This compound also yielded a T/C in [3] of 160%. In [4], this compound came in with an Active dose range of 2.5 mg/kg.

Turning to `CC[C@@]1(O)C(=O)OCc2c1cc1n(c2=O)Cc2cc3c(N)c(OC)ccc3nc2-1`, the No. of cures in assay [2] came to 0. For the same compound, the T/C in assay [3] amounted to 186%.

`CC[C@@]1(O)C(=O)OCc2c1cc1n(c2=O)Cc2cc3c([N+](=O)[O-])c(O)ccc3nc2-1` registered a No. of cures in assay [2] of 0. Further, the T/C in [13] is 131%. Further, in [4], the Active dose range was 2.5 mg/kg.

`CCC1(O)C(=O)OCc2c1cc1n(c2=O)Cc2cc3cc(NC(C)=O)ccc3nc2-1` (stereo not drawn) gave a No. of cures in assay [2] of 1. Moreover, in assay [3], the T/C worked out at 318%. This compound also had an Active dose range in assay [14] of 5 mg/kg. In addition, the KE (log cell kill) in assay [15] is greater than 5.86.

Consider `CC[C@](O)(C(=O)[O-])c1cc2n(c(=O)c1CO)Cc1cc3ccccc3nc1-2.[Na+]`, for which the T/C in [3] was determined as 215%.

For `CC[C@@]1(O)C(=O)OCc2c1cc1n(c2=O)Cc2cc3cc(OCC(=O)O)ccc3nc2-1`, the T/C entry in assay [16] was “inactive”.

On to `CC[C@@]1(O)C(=O)OCc2c1cc1n(c2=O)Cc2cc3cccc(N)c3nc2-1`, for which the T/C result in [16] was “inactive”.

The compound `CCC1(O)C(=O)OCc2c1cc1n(c2=O)Cc2cc3ccc(O)cc3nc2-1` (racemic) returned an Active dose range in assay [17] of 7.5 mg/kg. This compound registered a No. of cures in assay [2] of 3. Further, in assay [18], the T/C turned out to be 357%.

`CCC1(O)C(=O)OCc2c1cc1n(c2=O)Cc2cc3cc([N+](=O)[O-])ccc3nc2-1` (racemic): the Active dose range in assay [19] was 7.5 mg/kg. This compound also yielded a No. of cures in [2] of 1. The compound also returned a KE (log cell kill) in assay [15] greater than 5.86.

With `CCC1(O)C(=O)OCc2c1cc1n(c2=O)Cc2cc3sccc3nc2-1` (racemic), in assay [20], the T/C was 193%. The same compound displayed a No. of cures in [2] of 0. This compound had a Toxic dose in assay [21] of 50 mg/kg. Moreover, the Active dose range in [22] was found to be 3.12 mg/kg.

As for `CCC1(O)C(=O)OCc2c1cc1n(c2=O)Cc2cc3cc(N)ccc3nc2-1` (racemic), the No. of cures in assay [2] was found to be 3. Also, the T/C in assay [23] is recorded as 329%. The compound also came in with an Active dose range in assay [24] of 4 mg/kg. Also, the Toxic dose in [21] is 32 mg/kg. The compound also had a KE (log cell kill) in assay [15] greater than 5.86.

In the case of `CCC1(O)C(=O)OCc2c1cc1n(c2=O)Cc2cc3cc(OC)c(OC)cc3nc2-1` (racemic), the T/C entry in [25] is “inactive”. Also, the Toxic dose in assay [21] is greater than 50 mg/kg.

Regarding `CCC1(O)C(=O)OCc2c1cc1n(c2=O)Cc2cc3cc4c(cc3nc2-1)OCO4` (racemic), the T/C in assay [26] stood at 325%. The compound also returned a No. of cures in [2] of 2. In assay [27], this compound displayed an Active dose range of 2 mg/kg. This compound registered a KE (log cell kill) in [15] greater than 5.97.

Take `CC[C@@]1(O)C(=O)OCc2c1cc1n(c2=O)Cc2cc3c(N)cccc3nc2-1` [9-AMINOCAMPTOTHECIN]: the No. of cures in [2] was 4. This compound registered a T/C in [12] of 348%. For the same compound, in assay [28], the Active dose range turned out to be 2.5 mg/kg. Moreover, the KE (log cell kill) in [15] was greater than 5.86.

Consider `CC[C@@]1(O)C(=O)OCc2c1cc1n(c2=O)Cc2cc3ccccc3nc2-1` [CAMPTOTHECIN], for which, in [29], the T/C is 197%.

On to `CC[C@@]1(O)C(=O)OCc2c1cc1n(c2=O)Cc2cc3cc(O)ccc3nc2-1` [HYDROXYCAMPTOTHECIN], for which the T/C in assay [30] amounted to 297%. Besides, the No. of cures in assay [2] is 0. The compound also showed an Active dose range in [31] of 0.4 mg/kg. Moreover, the Toxic dose in assay [32] worked out at 6.25 mg/kg.

In [33], `CC[C@@]1(O)C(=O)OCc2c1cc1n(c2=O)Cc2cc3c([N+](=O)[O-])cccc3nc2-1` [RUBITECAN] came in with an Active dose range of 2.5 mg/kg. In [2], this compound gave a No. of cures of 5. Further, the T/C in assay [34] is 348%. This compound also came in with a Toxic dose in assay [21] of 40 mg/kg. Also, the KE (log cell kill) in [15] was greater than 5.86.
